For this experiment, the system named is carrageenan footpad edema in rats. Particulars: rat, in vivo, po, 5 mg/kg.

Structures are written as SMILES.

As to `COc1ccc2c(c1)c(CC(=O)O)c(C)n2C(=O)c1ccc(Cl)cc1` [Indomethacin], the “% I” value is 48% and the “Delta Edema (x ± SEM)” value is 40 ± 2.5.

Source of the values: patent US5063242A (priority 1990, dated 1991).
